# Experimental data taken from PubChem BioAssay AID681 (The Scripps Research Institute Molecular Screening Center, 2007).
# Molecular target: Nuclear receptor ROR-alpha (Homo sapiens) (UniProt P35398)
# Experiment: activators of RORA nuclear receptor, dose response, cell-based, CHO-K1, Gal4-RORA LBD, luciferase luminescence (AID 681)
# Conditions: CHO-K1 Gal4-RORA LBD luciferase reporter
# Chain of Nuclear receptor ROR-alpha (Homo sapiens) (P35398 whole entry, looked up, the tested form may be a part): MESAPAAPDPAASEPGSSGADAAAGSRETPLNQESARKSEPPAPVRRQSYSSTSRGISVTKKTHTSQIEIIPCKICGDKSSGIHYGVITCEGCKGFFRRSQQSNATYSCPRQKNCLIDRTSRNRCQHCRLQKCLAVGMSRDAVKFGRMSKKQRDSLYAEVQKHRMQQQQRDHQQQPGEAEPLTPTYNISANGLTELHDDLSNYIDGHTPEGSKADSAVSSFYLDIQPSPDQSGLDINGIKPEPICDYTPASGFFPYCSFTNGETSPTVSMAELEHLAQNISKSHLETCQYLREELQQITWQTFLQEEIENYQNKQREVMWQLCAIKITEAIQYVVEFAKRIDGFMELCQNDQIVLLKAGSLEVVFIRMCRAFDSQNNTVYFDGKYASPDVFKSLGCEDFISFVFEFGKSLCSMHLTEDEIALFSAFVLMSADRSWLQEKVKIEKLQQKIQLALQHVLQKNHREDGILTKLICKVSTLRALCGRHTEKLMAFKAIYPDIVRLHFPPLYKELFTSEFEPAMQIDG
row,EC50 [nM],SMILES
1,3630,O=C1COc2ccc(OCc3ccc(F)cc3)cc21
2,1350,C=CCOc1ccc(/C=C/C(C)=N\O)cc1
3,491,CCOc1ccc(/C=C\C(C)=N\O)cc1
